From patent US9233127B2, “Compositions and methods for CXCR4 signaling and umbilical cord blood stem cell engraftment” (University of Virginia Patent Foundation, priority 2012, dated 2016)

Columns and labels:
UCB CD34+ cells [1] = experiment: Transwell chemotaxis of UCB CD34+ cells to SDF-1 (priming); format: cell-based, human
Experimental: FIG. 11A-B—Effect of SLP and its components on chemotaxis of CD34^+ cells. Panel A: Chemotaxis of BM CD34^+ cells towards medium alone (control), SDF-1 low (10 ng/mL) alone, SLP (combined SLP from three patients), SDF-1 low+SLP, and SDF-1 high (300 ng/mL). Data are pooled from quadruplicate samples from three independent experiments. *p<0.00001. Panel B: Chemotaxis of UCB CD34^+ cells to medium alone (control), SDF-1 low (10 ng/mL) alone and SDF-1 low (10 ng/mL)+uPAR (1 μg/mL) or +ICAM (1 μg/mL) or +VCAM (1 μg/mL) or +FN (2 μg/mL), or +FG (4 μg/mL) or +C3a (1 μg/mL). Data are pooled from quadruplicate samples from three independent experiments. * p<0.00001.
An increased migration of UCB-derived CD34^+ cells, as compared to BM and mPB CD34^+ cells was reported in transwell migration assays was previously reported. However, we noticed large inter-individual differences in the in vitro migratory ability of UCB CD34^+ cells, ranging from 1.1% to 14.3% for spontaneous migration and 3.1% to 62.3% for SDF-1-induced (300 ng/mL) migration. The lower migratory capacity in vitro of UCB-derived CD34^+ cells was not due to lower expression of CXCR4, but likely reflects the decreased migratory behavior of these cells. […] Based on this, we postulate that UCB HSPC responsiveness to an SDF-1 gradient varies with each collected UCB unit and that, in cases when responsiveness is low, UCB HSPCs should be identified and primed before infusion.
Moreover, as SLP contains several components that potentially could prime the responses of CD34^+ cells, (Example 2, FIG. 11, panel B) the most important being PMV and activated complement proteins such as anaphylatoxin C3a, soluble VCAM-1, soluble ICAM-1, uPAR, FG, and FN, we evaluated whether these factors could induce the chemotaxis of HSPCs when used alone. […] We also examined whether FG, FN, soluble VCAM-1, soluble ICAM-1, uPAR, and C3a prime HSPCs in their responses to SDF-1. […] To determine whether this also affects UCB CD34^+ clonogenic progenitors, UCB CD34^+ cells were collected from the lower chambers after the chemotaxis assay and plated in methylcellulose cultures. […] Moreover, a similar effect for the established hematopoietic cell lines Molt 4, Nalm-6, and THP-1 was also found (data not shown).

UCB CD34+ cells [2] = experiment: Actin polymerization in CD34+ cells; format: cell-based, human; conditions: in the presence of C3a
Excerpt: Exposure of UCB CD34^+ cells to a low dose of SDF-1 promotes actin polymerization which is enhanced by the presence of C3a.
In another set of experiments, we attempted to elucidate the molecular mechanisms by which C3a enhances the responsiveness of hematopoietic cells to an SDF-1 gradient. […] However, we observed that actin polymerization of CD34^+ cells to a low dose of SDF-1 was enhanced in the presence of C3a.

[3] = test system: human umbilical vein endothelial cells; experiment: Adhesion of UCB CD34+ cells to endothelial cells; format: cell-based
UCB and BM CD34+ cells = experiment: MMP secretion and trans-Matrigel migration of primed CD34+ cells; format: cell-based, human; conditions: UCB and BM CD34+ cells primed with C3a
Sca-1+ cells = experiment: Hematopoietic recovery of lethally irradiated mice given C3a primed Sca-1+ cells; format: in vivo
Excerpt: FIG. 6A-B—Sca-1^+ Cells Primed with C3a Engraft Faster in Lethally Irradiated Mice. 6A—left panel; 6B—right panel.

[4] = test system: UCB MNC and CD4+45RA+ T-cells; experiment: Transmigration of UCB MNC and CD4+/45RA+ T-cells to SDF-1 without and with C3a priming; format: cell-based, human; conditions: C3a 1 μg/ml 30 minutes; SDF-1 10 ng/ml, 3 h
Experimental: FIG. 30A-B—UCB MNC migration to SDF-1. Lymphocytes from SSC/FSC plots were gated to determine the number of transmigrating UCB CD45^+CD4^+ T-cells. A. The total number of transmigrated lymphocytes migrating without and with C3a priming prior to exposure to 10 ng/ml SDF-1 (mean±SD). […] All staining patterns of labeled cells were compared to cells incubated with APC- and PerCP-isotype antibodies to set negative quadrants gates.
FIG. 31A-B—UCB CD4^+45RA T-cell migration to SDF-1. […] A. Percentage of selected CD4^+/45RA^+ T-cells transmigrating without and with C3a priming prior to exposure to 10 ng/ml SDF-1 (mean±SD). B. CD45^+CD4^+ T-cells were observed only in gate P3 in contrast to the transmigration of MNC.
Cord blood MNC (FIG. 30A-B) isolated by Ficoll density gradient centrifugation or naïve CD4^+/45RA^+ T-cells (FIG. 31A-B below), isolated from MNC fractions (Miltenyi), were incubated in DMEM media with 1% human serum albumin or exposed to complement protein C3a (1 μg/ml) for 30 minutes at RT. […] Transmigrated cells were counted (Z Series Coulter counter) and stained with anti-CD4-PerCP anti-CD45-APC antibodies for 20 min in PBS buffer with 10% FBS prior to flow cytometric analyses on a […] in […], cells were fixed in 2% paraformaldehyde prior to acquisition. […]

UCB MNC = experiment: In vitro migration assay UCB (CD34+ HSC enumerated by FACS); format: cell-based, human; conditions: C3a 1 ug/ml; 3 h chemotaxis assay
Experimental: FIG. 52—In Vitro Migration Assay UCB. UCB MNC are loaded in the top chamber and the number of CD34^+ HSC present after the 3 h chemotaxis assay in the lower chambers from trans-wells are enumerated by FACS.

[5] = C3a primed hematopoietic progenitors

## C3a: 77 amino acid residue protein derived from the human complement C3a precursor; SEQ ID NO:1
UCB CD34+ cells [1]
  SDF-1-mediated transwell cell migration of C3a primed UCB CD34+ HSC: enhanced
UCB CD34+ cells [1]; UCB-derived CD34+ cells exposed/primed
  responsiveness of UCB cells to SDF-1 gradient: significantly increase the responsiveness
UCB CD34+ cells [1]; added to lower chambers with SDF-1 10 ng/mL, uPAR, ICAM, VCAM, C3a 1 μg/mL, FN 2 μg/mL, FG 4 μg/mL
  chemotactic response of UCB CD34+ cells to SDF-1: increased the chemotactic response
UCB CD34+ cells [1]; without SDF-1
  induction of chemotaxis of HSPCs when used alone: no evidence that they did
UCB CD34+ cells [2]
  actin polymerization of CD34+ cells to a low dose of SDF-1: enhanced
[3]; C3a
  adhesion of UCB CD34+ cells to human umbilical vein endothelial cells: increases adhesion
[3]; combination of C3a priming and SDF-1
  adhesion of CD34+ cells: only to a slight increase
UCB and BM CD34+ cells
  MMP-9 and MMP-2 secretion: significantly increase
  trans-Matrigel migration toward a low dose of SDF-1: significantly increase
Sca-1+ cells; [5]
  faster rate of leukocyte recovery relative to untreated mice: 5 days
  platelet counts: benefit in platelet counts
Sca-1+ cells; murine studies
  infusional toxicity and coagulopathy: neither infusional toxicity nor evidence of coagulopathy was observed
[4]
  migration of UCB MNC or naïve CD45+ CD4+ cells to a low SDF-1 gradient: prime migration of a portion of the cell populations
UCB MNC
  rates of UCB chemotaxis in vitro: significantly higher rates
